PubChem BioAssay (NCI)
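All cell lines were grown in 96-well plates and treated with compound for 48 hours. The concentration for 50% growth inhibition is given as GI50. TGI: total growth inhibition.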

Columns and labels:
Assay in all cases: DTP human tumour cell line panel, 48 h
786-0 renal = test system: 786-0 renal
A498 renal = test system: A498 renal
A549 NSCLC = test system: A549 NSCLC
ACHN renal = test system: ACHN renal
BT-549 breast = test system: BT-549 breast
CAKI-1 renal = test system: CAKI-1 renal
CCRF-CEM leukemia = test system: CCRF-CEM leukemia
COLO 205 colon = test system: COLO 205 colon
DU-145 prostate = test system: DU-145 prostate
EKVX NSCLC = test system: EKVX NSCLC
HCC-2998 colon = test system: HCC-2998 colon
HCT-116 colon = test system: HCT-116 colon
HCT-15 colon = test system: HCT-15 colon
HL-60(TB) leukemia = test system: HL-60(TB) leukemia
HOP-62 NSCLC = test system: HOP-62 NSCLC
HOP-92 NSCLC = test system: HOP-92 NSCLC
HS 578T breast = test system: HS 578T breast
HT29 colon = test system: HT29 colon
IGROV1 ovarian = test system: IGROV1 ovarian
K-562 leukemia = test system: K-562 leukemia
KM12 colon = test system: KM12 colon
M14 melanoma = test system: M14 melanoma
MALME-3M melanoma = test system: MALME-3M melanoma
MCF7 breast = test system: MCF7 breast
MDA-MB-231 breast = test system: MDA-MB-231 breast
MDA-MB-435 = test system: MDA-MB-435
MOLT-4 leukemia = test system: MOLT-4 leukemia
NCI-H226 lung = test system: NCI-H226 lung
NCI-H23 lung = test system: NCI-H23 lung
NCI-H460 lung = test system: NCI-H460 lung
NCI-H522 lung = test system: NCI-H522 lung
NCI/ADR-RES ovarian = test system: NCI/ADR-RES ovarian
OVCAR-4 ovarian = test system: OVCAR-4 ovarian
OVCAR-5 ovarian = test system: OVCAR-5 ovarian
OVCAR-8 ovarian = test system: OVCAR-8 ovarian
PC-3 prostate = test system: PC-3 prostate
RPMI-8226 leukemia = test system: RPMI-8226 leukemia
RXF 393 renal = test system: RXF 393 renal
SF-268 CNS = test system: SF-268 CNS
SF-295 CNS = test system: SF-295 CNS
SF-539 CNS = test system: SF-539 CNS
SK-MEL-2 melanoma = test system: SK-MEL-2 melanoma
SK-MEL-28 melanoma = test system: SK-MEL-28 melanoma
SK-MEL-5 melanoma = test system: SK-MEL-5 melanoma
SK-OV-3 ovarian = test system: SK-OV-3 ovarian
SN12C renal = test system: SN12C renal
SNB-19 CNS = test system: SNB-19 CNS
SR leukemia = test system: SR leukemia
SW-620 colon = test system: SW-620 colon
T-47D breast = test system: T-47D breast
TK-10 renal = test system: TK-10 renal
U251 CNS = test system: U251 CNS
UACC-257 melanoma = test system: UACC-257 melanoma
UACC-62 melanoma = test system: UACC-62 melanoma
UO-31 renal = test system: UO-31 renal

O=[N+]([O-])c1ccc(-c2nnc(SCc3ccc(O)c4ncccc34)n2-c2ccccc2)cc1
GI50 (786-0 renal): 1.36 µM
TGI (786-0 renal): > 84.2 µM
GI50 (A498 renal): 2.3 µM
TGI (A498 renal): 17 µM
GI50 (A549 NSCLC): 0.41 µM
TGI (A549 NSCLC): > 100 µM
GI50 (ACHN renal): 2.03 µM
TGI (ACHN renal): > 100 µM
GI50 (BT-549 breast): 0.175 µM
TGI (BT-549 breast): > 100 µM
GI50 (CAKI-1 renal): 2.41 µM
TGI (CAKI-1 renal): > 100 µM
GI50 (CCRF-CEM leukemia): 0.507 µM
TGI (CCRF-CEM leukemia): > 100 µM
GI50 (COLO 205 colon): 2.51 µM
TGI (COLO 205 colon): 7.02 µM
GI50 (DU-145 prostate): 0.442 µM
TGI (DU-145 prostate): > 100 µM
GI50 (EKVX NSCLC): 1.43 µM
TGI (EKVX NSCLC): > 100 µM
GI50 (HCC-2998 colon): 1.4 µM
TGI (HCC-2998 colon): > 100 µM
GI50 (HCT-116 colon): 0.127 µM
TGI (HCT-116 colon): > 100 µM
GI50 (HCT-15 colon): 1.05 µM
TGI (HCT-15 colon): > 100 µM
GI50 (HL-60(TB) leukemia): 0.447 µM
TGI (HL-60(TB) leukemia): > 22.9 µM
GI50 (HOP-62 NSCLC): 0.99 µM
TGI (HOP-62 NSCLC): > 100 µM
GI50 (HOP-92 NSCLC): 0.069 µM
TGI (HOP-92 NSCLC): 0.598 µM
GI50 (HS 578T breast): 0.312 µM
TGI (HS 578T breast): > 100 µM
GI50 (HT29 colon): 3.19 µM
TGI (HT29 colon): > 100 µM
GI50 (IGROV1 ovarian): 1.56 µM
TGI (IGROV1 ovarian): > 100 µM
GI50 (K-562 leukemia): 0.447 µM
TGI (K-562 leukemia): > 100 µM
GI50 (KM12 colon): 0.585 µM
TGI (KM12 colon): > 100 µM
GI50 (M14 melanoma): 0.493 µM
TGI (M14 melanoma): > 100 µM
GI50 (MALME-3M melanoma): 1.17 µM
TGI (MALME-3M melanoma): 8.45 µM
GI50 (MCF7 breast): 0.325 µM
TGI (MCF7 breast): > 100 µM
GI50 (MDA-MB-231 breast): 1.05 µM
TGI (MDA-MB-231 breast): 4.69 µM
GI50 (MDA-MB-435): 0.329 µM
TGI (MDA-MB-435): > 100 µM
GI50 (MOLT-4 leukemia): 0.777 µM
TGI (MOLT-4 leukemia): > 100 µM
GI50 (NCI-H226 lung): 4.3 µM
TGI (NCI-H226 lung): > 100 µM
GI50 (NCI-H23 lung): 0.433 µM
TGI (NCI-H23 lung): > 100 µM
GI50 (NCI-H460 lung): 0.229 µM
TGI (NCI-H460 lung): > 100 µM
GI50 (NCI-H522 lung): 0.253 µM
TGI (NCI-H522 lung): > 29.6 µM
GI50 (NCI/ADR-RES ovarian): 7.35 µM
TGI (NCI/ADR-RES ovarian): > 100 µM
GI50 (OVCAR-4 ovarian): 2.12 µM
TGI (OVCAR-4 ovarian): > 100 µM
GI50 (OVCAR-5 ovarian): 3.35 µM
TGI (OVCAR-5 ovarian): > 100 µM
GI50 (OVCAR-8 ovarian): 0.24 µM
TGI (OVCAR-8 ovarian): > 100 µM
GI50 (PC-3 prostate): 0.114 µM
TGI (PC-3 prostate): > 100 µM
GI50 (RPMI-8226 leukemia): 0.695 µM
TGI (RPMI-8226 leukemia): > 100 µM
GI50 (RXF 393 renal): 0.651 µM
TGI (RXF 393 renal): > 100 µM
GI50 (SF-268 CNS): 0.36 µM
TGI (SF-268 CNS): > 100 µM
GI50 (SF-295 CNS): 0.444 µM
TGI (SF-295 CNS): 5.04 µM
GI50 (SF-539 CNS): 0.377 µM
TGI (SF-539 CNS): > 100 µM
GI50 (SK-MEL-2 melanoma): 0.314 µM
TGI (SK-MEL-2 melanoma): 1.82 µM
GI50 (SK-MEL-28 melanoma): 0.715 µM
TGI (SK-MEL-28 melanoma): > 100 µM
GI50 (SK-MEL-5 melanoma): 0.363 µM
TGI (SK-MEL-5 melanoma): 1.97 µM
GI50 (SK-OV-3 ovarian): 1.76 µM
TGI (SK-OV-3 ovarian): 6.35 µM
GI50 (SN12C renal): 0.293 µM
TGI (SN12C renal): > 100 µM
GI50 (SNB-19 CNS): 0.254 µM
TGI (SNB-19 CNS): > 100 µM
GI50 (SR leukemia): 0.42 µM
TGI (SR leukemia): > 100 µM
GI50 (SW-620 colon): 0.479 µM
TGI (SW-620 colon): > 100 µM
GI50 (T-47D breast): 0.834 µM
TGI (T-47D breast): > 100 µM
GI50 (TK-10 renal): 2.86 µM
TGI (TK-10 renal): > 100 µM
GI50 (U251 CNS): 0.191 µM
TGI (U251 CNS): > 100 µM
GI50 (UACC-257 melanoma): 1.38 µM
TGI (UACC-257 melanoma): > 26.1 µM
GI50 (UACC-62 melanoma): 2.06 µM
TGI (UACC-62 melanoma): > 100 µM
GI50 (UO-31 renal): 1.95 µM
TGI (UO-31 renal): > 100 µM
